Laboratory results as given in ChEMBL document CHEMBL1201862, “PubChem BioAssay data set” (2004).
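Where inhibition never reached the appropriate level, the endpoint shown equals the highest concentration tested. Otherwise, values were interpolated linearly from a five-concentration, 48-hour dose response in 96-well plates. Abbreviation: GI50, concentration required for 50% inhibition of growth.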 Active and inactive are the calls of the source. No stated cut-off is given here; in the data, active = GI50 up to about 1.1 µM and inactive = higher.

Experiments:
Experiment in all cases: growth of human tumour cells (NCI), 48 h
MDA-N = test system: MDA-N
T47D = test system: T47D
IGROV-1 = test system: IGROV-1
MDA-MB-231 = test system: MDA-MB-231
SK-MEL-2 = test system: SK-MEL-2
SW-620 = test system: SW-620
OVCAR-5 = test system: OVCAR-5
Malme-3M = test system: Malme-3M
HT-29 = test system: HT-29
UACC-62 = test system: UACC-62
U-251 = test system: U-251
A549 = test system: A549
SK-MEL-28 = test system: SK-MEL-28
UACC-257 = test system: UACC-257
RPMI-8226 = test system: RPMI-8226
HCT-15 = test system: HCT-15
MDA-MB-435 = test system: MDA-MB-435
786-0 = test system: 786-0
EKVX = test system: EKVX
SK-OV-3 = test system: SK-OV-3

SMILES | GI50 (MDA-N) | GI50 (T47D) | GI50 (IGROV-1) | GI50 (MDA-MB-231) | GI50 (SK-MEL-2) | GI50 (SW-620) | GI50 (OVCAR-5) | GI50 (Malme-3M) | GI50 (HT-29) | GI50 (UACC-62) | GI50 (U-251) | GI50 (A549) | GI50 (SK-MEL-28) | GI50 (UACC-257) | GI50 (RPMI-8226) | GI50 (HCT-15) [µM] | GI50 (MDA-MB-435) | GI50 (786-0) | GI50 (EKVX) | GI50 (SK-OV-3)
N#C/C(C(=O)NCc1ccccc1)=C(/N)N1CCCC1 | > 100 µM (inactive) | > 100 µM (inactive) | > 100 µM (inactive) | > 100 µM (inactive) | > 100 µM (inactive) | > 100 µM (inactive) | > 100 µM (inactive) | > 100 µM (inactive) | > 100 µM (inactive) | > 100 µM (inactive) | > 100 µM (inactive) | > 100 µM (inactive) | > 100 µM (inactive) | > 100 µM (inactive) | > 100 µM (inactive) | > 100 | > 100 µM (inactive) | > 100 µM (inactive) | > 100 µM (inactive) | > 100 µM (inactive)
Clc1ccc(CSCCc2ccncc2)cc1Cl | 20.2 µM (inactive) | 26.3 µM (inactive) | 20.8 µM (inactive) | 15.4 µM (inactive) | 15.8 µM (inactive) | 19.6 µM (inactive) | 23.3 µM (inactive) | 21 µM (inactive) | 15.7 µM (inactive) | 15.3 µM (inactive) | 15.2 µM (inactive) | 28.1 µM (inactive) | 22.7 µM (inactive) | 35.9 µM (inactive) | 14.6 µM (inactive) | 22.9 | 22.6 µM (inactive) | 17.2 µM (inactive) | 20.4 µM (inactive) | 27.8 µM (inactive)
N=C1/C(=C/c2ccco2)C(=O)N=C2SC=NN12 | > 100 µM (inactive) | > 100 µM (inactive) | > 100 µM (inactive) | > 100 µM (inactive) | > 100 µM (inactive) | > 100 µM (inactive) | > 100 µM (inactive) | > 100 µM (inactive) | > 100 µM (inactive) | > 100 µM (inactive) | > 100 µM (inactive) | > 100 µM (inactive) | > 100 µM (inactive) | > 100 µM (inactive) | > 100 µM (inactive) | > 100 | > 100 µM (inactive) | > 100 µM (inactive) | > 100 µM (inactive) | > 100 µM (inactive)
Nc1nc(-c2ccccc2)c(CC(=O)O)s1 | > 100 µM (inactive) | > 100 µM (inactive) | > 100 µM (inactive) | > 100 µM (inactive) | > 100 µM (inactive) | > 100 µM (inactive) | > 100 µM (inactive) | > 100 µM (inactive) | > 100 µM (inactive) | > 100 µM (inactive) | > 100 µM (inactive) | > 100 µM (inactive) | > 100 µM (inactive) | > 100 µM (inactive) | > 100 µM (inactive) | > 100 | > 100 µM (inactive) | > 100 µM (inactive) | > 100 µM (inactive) | > 100 µM (inactive)
O=C1/C(=C/c2c(Cl)[nH]c3ccccc23)c2ccccc2N1c1ccccc1 | 1.85 µM (inactive) | 3.37 µM (inactive) | 4.39 µM (inactive) | 6.4 µM (inactive) | 3.36 µM (inactive) | 5.15 µM (inactive) | 12.9 µM (inactive) | 5.79 µM (inactive) | 3.53 µM (inactive) | 5.65 µM (inactive) | 5.05 µM (inactive) | 5.18 µM (inactive) | 10.4 µM (inactive) | 11.6 µM (inactive) | 2.92 µM (inactive) | 3.14 | 1.64 µM (inactive) | 6.56 µM (inactive) | 3.16 µM (inactive) | 2 µM (inactive)
COc1ccc2c(c1)[C@@]13CCN4CC5=CCO[C@H]6CC(=O)N2[C@H]1[C@H]6[C@H]5C[C@H]43 | > 100 µM (inactive) | > 100 µM (inactive) | 34.9 µM (inactive) | > 100 µM (inactive) | > 100 µM (inactive) | > 100 µM (inactive) | > 100 µM (inactive) | 90.4 µM (inactive) | 37.2 µM (inactive) | > 100 µM (inactive) | > 100 µM (inactive) | > 100 µM (inactive) | 80.5 µM (inactive) | > 100 µM (inactive) | > 100 µM (inactive) | > 100 | > 100 µM (inactive) | > 100 µM (inactive) | 44.4 µM (inactive) | > 100 µM (inactive)
C/C=C/[C@H](O[Si](C)(C)C(C)(C)C)[C@@H](O)/C=C/C(=O)OCC | 19.6 µM (inactive) | 30.4 µM (inactive) | 22.8 µM (inactive) | 25.8 µM (inactive) | 26.5 µM (inactive) | 19.3 µM (inactive) | 31.1 µM (inactive) | 14.7 µM (inactive) | 21.5 µM (inactive) | 18.8 µM (inactive) | 19.4 µM (inactive) | 30.1 µM (inactive) | 16.9 µM (inactive) | 19 µM (inactive) | 2.04 µM (inactive) | 14.4 | 19.5 µM (inactive) | 20.8 µM (inactive) | 20.7 µM (inactive) | > 10 µM (inactive)
